The results in this text go back to patent US20240279602A1, “METHOD FOR PRODUCING CEREBRAL CORTICAL CELL PREPARATION DERIVED FROM HUMAN PLURIPOTENT STEM CELLS” (Kyoto University, priority 2021, published 2024).

This experiment relates to cerebral organoids. Briefly: Immunostaining of cell aggregates after DAPT treatment. It counts as cell-based, human. The method, then: Organoids were fixed with 4% paraformaldehyde for 30 minutes, subjected to dehydration reaction with 30% (w/v) sucrose in PBS, and embedded with O.C.T. compound (Sakura Finetek Japan Co., Ltd.). Frozen sections were prepared in a thickness of 16 μm by using a cryostat (CM1850, Leica Biosystems Nussloch GmbH). Permeabilization was performed with 0.3% or 2% (v/v) Triton-X100, and, as necessary, antigen retrieval reaction was performed. Blocking was performed with Block ACE (KAC Co., Ltd.), and double- or triple-label staining was then performed. Primary antibodies and secondary antibodies for use in immunostaining were diluted to recommended concentrations before use.
As illustrated by a scheme shown in FIG. 11(A), in step (ii), cerebral organoids were screened on day 33 after the initiation of induction of differentiation (Day 33), the culture medium was replaced with one obtained by adding 10 μM DAPT to the culture medium in step (2b), and suspension culture was performed at 37° C. under 5% CO2 for 3 days. As a result, cerebral cortical cell aggregates were obtained.
The cerebral cortical cell aggregates (Day 36) and high-purity cerebral cortical cell aggregates (Day 40) were further immunostained for the cortical layer V/VI progenitor cell (deep layer) marker Ctip2, the telencephalon marker Foxg1, the neural stem cell (radial glia) marker […], and the proliferative cell marker Ki67.
Organoids on Day 25, Day 32, Day 39, and Day 72 (the periods of induction of differentiation: about 4 weeks, 5 weeks, 6 weeks, and 10 weeks, respectively) were cultured in the presence or absence of DAPT for 3 days, and the organoids on Day 28 (4 wk), Day 42 (6 wk), and Day 75 (10 wk) were analyzed for different markers by immunostaining. […] Satb2 is a cortical layer II-IV progenitor cell (upper layer) marker.

Setting [1] is: organoids Day 33, 10 μM DAPT for 3 days, Day 36.
Setting [2] is: organoids in week 4 to week 6, DAPT for 3 days.

As for `C[C@H](NC(=O)Cc1cc(F)cc(F)c1)C(=O)N[C@H](C(=O)OC(C)(C)C)c1ccccc1` [DAPT, N-[N-(3,5-difluorophenacetyl)-L-alanyl]-S-phenylglycine t-butyl ester], under setting [1], the “cerebral cortex-like layered structure (immunostaining)” value is “no cerebral cortex-like layered structure was found” and the “expression of Ki67 (immunostaining)” value was “almost no expression”. Besides, under setting [2], the “number of Ctip2/Bf1-co-positive cells” value is listed as “increased number” and the “number of Ki67-positive cells” value is on record as “decreased number”. For the same compound, the “proportion of Ctip2-positive cells and that of Satb2-positive cells” value (organoids in week 10, DAPT for 3 days) is recorded as “no significant change”.
